“Also recorded” adds a separate entry of the source. Structures can show the parent of a compound that is named as a salt.
Columns and labels:
[1] = system: β2-adrenergic receptor over β1-adrenergic receptor; conditions: reported in literature; cited from earlier work
[2] = system: HIF transcriptional activity in HeLa 9XHRE cells; assay: HRE-luciferase reporter assay under DFO chemical hypoxia; assay type: cell-based, human; conditions: for luciferase activity induced by hypoxia (HIF transcriptional activity): 100 μM, 100 μM DFO
Source text: Angiogenesis is largely dependent of HIF transcription program, triggered in the presence of hypoxic condition, or as in the case of Von Hippel Lindau haemangioblastoma cells, due to the lack of VHL protein in charge of targeting HIF protein for its proteasome processing under normoxic conditions in wild type cells. A special peculiarity of hemangioblastoma cells, and clear cell kidney carcinoma cells, is that they constitutively express HIF protein, which is active, and is translocated to nucleus where it may bind and activates its gene targets such as: VEGF, PDGF, EPO, endoglin, several metalloproteases, carbonic anhydrase, Glut-1 and so on.

HMEC = assay: Cell viability measure (CellTiter-Glo); assay type: cell-based, human
Procedure: (§1) Endothelial cell lines (HUVECs and HMECs), human ccRCC Vhl−/− 786-O cell line, and primary cultures hemangioblastomas from patients (Hb14 and 18) were seeded in triplicate onto a 96-well plate (2×10^3 per well). […] Cell viability (cell proliferation, ATP content) was determined using the CellTiter-Glo Luminescent Cell Viability Assay kit (Promega) according to the supplier's instructions. […] Cell lysis was induced in an orbital shaker for 2 min, and then plates were incubated at room temperature for 10 min to stabilize the luminescent signal. Luminescence was measured using a GlomaxMultidetection System (Promega) Readings were normalized to control (100%).

HUVEC = assay: Cell viability measure (CellTiter-Glo); assay type: cell-based, human
Procedure: as §1

[3] = system: BAX and CASP9 mRNA in hemangioblastoma cells; assay: Real-time RT-PCR of proapoptotic genes; assay type: cell-based, human; conditions: 100 μM, 72 h; HB26 and HB11 hemangioblastoma cell culture
Procedure: Total cellular RNA was extracted from hemangioblastoma cells using a Nucleo Spin RNA kit (Macherey-Nagel, Düren, Germany). One microgram of total RNA was reverse-transcribed in a final volume of 20 μl with the First Strand cDNA Synthesis Kit (Roche, Mannheim, Germany) using random primers. SYBR Green PCR system (BioRad, Hercules, Calif., USA) was used to carry out real-time PCR with an iQ5 system. Primers used for qPCR were: […]

[4] = system: hemangioblastoma primary cell cultures from VHL patients; conditions: both at 100 μM, 72 hours
Procedure: HeLa 9XHRE cells were stably transfected with a HREluc reporter carrying nine copies in tandem of the hypoxia responsive element (HRE) followed by luciferase gene, and were cultured in DMEM (Dulbecco's Modified Eagle Medium, Gibco, Grand Island, N.Y., USA) supplemented with 10% fetal bovine serum (FBS; Gibco). To induce hypoxic conditions, HeLa cells were cultured with 100 μM desferrioxamine (DFO) (chemical hypoxia). […] Primary cultures of CNS hemangioblastoma were obtained according to the previously described by Albiñana et al., Orphanet J Rare Diseases, 2015, 10: 118.
The viability of hemangioblastoma and HeLa 9XHRE cells was measured with a CellTiter-Glo Luminescent Cell Viability Assay (Promega, Madison, Wis., USA). This is a homogeneous method to determine the number of viable cells in culture based on quantitation of the ATP present, which signals the presence of metabolically active cells. […] After treatment, plates were equilibrated to room temperature for 30 min before the addition of 100 μl of Cell Titer-Glo reagent (Lysis buffer, Ultra-Glo Recombinant Luciferase, Luciferine and Mg2+). Luminescence was measured using a Glomax Multidetection System (Promega).

[5] = system: primary cultures hemangioblastomas from patients (Vhl−/−); assay: Cell viability measure (CellTiter-Glo); assay type: cell-based, human; conditions: for viability (ATP content) of the VHL−/− cells: 72 hours, hemangioblastoma primary cultures 18, 14 and 786-O vs HUVEC, HMEC (FIG. 9)
Procedure: Cell viability (cell proliferation, ATP content) was determined using the CellTiter-Glo Luminescent Cell Viability Assay kit (Promega) according to the supplier's instructions. […] Cell lysis was induced in an orbital shaker for 2 min, and then plates were incubated at room temperature for 10 min to stabilize the luminescent signal. Luminescence was measured using a GlomaxMultidetection System (Promega) Readings were normalized to control (100%).

HUVEC migration = assay: Wound healing assay; assay type: cell-based, human; conditions: 100 μM, 6 hours
Procedure: FIG. 5. […] A. Functional in vitro tests for angiogenesis include “wound-healing” or plate-scratch, to follow the migration capacity of endothelial cells after short times. When a confluent monolayer is disrupted with the tip of a micropipette to create a discontinuity, endothelial cells normally migrate to cover the discontinuity “wound the healing” in a short time, depending on the size of the “wound” but normally, less than 8 hours. This test measures the migration by taking pictures at different times from the moment the wound is created. Only the final picture after 6 hours is shown. The migrated distance is quantified, and in the following graph the evolution is shown.
(§2) In vitro-scratched wounds were created by scraping confluent HUVEC-1 monolayers in P-24 plate wells with sterile disposable pipet tips.

[6] = system: human ccRCC Vhl−/− 786-O cell line; assay: Cell viability measure (CellTiter-Glo); assay type: cell-based; conditions: 72 hours, 0 to 250 μM
Procedure: as §1

[7] = system: VHL-derived hemangioblastoma cells (hemangiospheres); assay: Hemangiospheres formation and culture; assay type: cell-based, human; conditions: 100 μM, 7 days
Procedure: VHL-derived hemangioblastoma cells were grown in suspension in phenol red free DMEM:F-12 medium with GlutaMAX, supplemented with B27, 20 ng/ml EGF, 20 ng/ml bFGF and 1% penicillin/streptomycin at 37° C. in 5% CO2. Single cell suspensions were plated at a density of 50.000 cells/ml in 75 cm^2 ultralow attachment flasks (Corning).

[8] = system: 786-O Vhl−/− ccRCC xenograft; assay type: in vivo; conditions: 10 mg/Kg daily intraperitoneally; 50-60 days after the cell inoculation
Procedure: FIG. 10. Xenografts of 786-O Vhl−/− human ccRCC cells in mice. Male 7-8 weeks old NOD scid gamma (NSG) mice were injected in the dorsal flank with a single cell suspension of 10^6 786-O cells. When tumor size reached 100 mm3 volume, mice were randomly divided in 3 groups, of 9/10 mice each. […] Tumor size was measured by a caliper every 2-3 days and volumes were calculated following the formula: shortest^2×largest×0.52. Mice were sacrificed when tumor volume average of the control group reached an end point established based on ethical procedures. Arrow marks the beginning of the treatment.
Male 7-8 weeks old NOD scid gamma (NSG) mice were injected in the dorsal flank with a single cell suspension of […] 786-O cells. When tumor size reached 100 mm^3 volume, mice were randomly divided in 3 groups, of 9/10 mice each. […] Tumor size was measured by a caliper every 2-3 days and volumes were calculated following the formula: shortest 2×largest×0.52. Mice were sacrificed when tumor volume average of the control group reached an end point established according to ethical procedures

HUVECs tubulogenesis = assay: Tube formation assay on Matrigel; assay type: cell-based, human; conditions: 100 μM, 3 hours
Source text: FIG. 6. […] Tubulogenesis is another in vitro test for angiogenesis. Endothelial cells cultured on matrigel have the property of building cell tube-like structures, which mimic the “vessels” structure. […] B. The number of closed cells (density network) is quantified and averaged from 5 different fields in each case. Bar histograms represent the mean±SD.
as §2

retina hemangioblastomas = conditions: cited from earlier work

In the case of `COc1ccc(OC)c(C(O)C(C)NC(C)(C)C)c1` (racemic) [butoxamine, DL-erythro-α-(2,5-dimethoxyphenyl)-β-t-butyl aminopropanol hydrochloride], the β2/β1 selectivity ratio [1] is listed as “at least 17”.

In the case of `CC(C)NCC(O)COc1ccc(CC(N)=O)cc1` (stereo not shown) [Atenolol], the “luciferase activity induced by hypoxia (HIF transcriptional activity)” value (shortened to “luciferase activity induced by hypoxia”) [2] is reported as “less significant” and the “luciferase activity induced by hypoxia” value ([2]; listed as atenolol) is reported as “hardly reduced the hypoxia stimulation”.

In the case of `Cc1ccc(OCC(O)C(C)NC(C)C)c2c1CCC2` [ICI 118,551, erythro-D,L-1(methylinden-4-yloxy)-3-isopropylaminobutan-2-ol], the β2/β1 selectivity ratio [1] is listed as “at least 50”, the decrease in viability (HMEC; HMEC-1, 100 μM (FIG. 11)) is listed as 55% and the LD50 (HMEC; HMEC, 72 hours, 0 to 250 μM) is listed as “around 150 μM”. For the same compound, the decrease in viability (HUVEC; 100 μM (FIG. 11)) was 80%, the LD50 (HUVEC; 72 hours, 0 to 250 μM) was “around 150 μM” and the “Bax mRNA expression (RT-qPCR)” value [3] was “significantly upregulated; also recorded: increased”. For the same compound, the “Caspase 9 mRNA expression (RT-qPCR)” value [3] was “significantly upregulated; also recorded: increased”, the “effect on viability compared with propranolol” value [4] was “superior to propranolol” and the “viability (ATP content) of the VHL−/− cells” value [5] was “decrease, in a dose-dependent manner and with higher specificity”. For the same compound, the viability at 100 µM ([5]; Homo sapiens, Haemangioblastoma (HB) cells, 100 μM (FIG. 11)) was 20%, the “luciferase activity induced by hypoxia” value [2] was “reduced practically to “0”” and the “luciferase activity induced by hypoxia” value ([2]; listed as ICI) was “prevented hypoxia stimulation”. For the same compound, the “luciferase activity induced by hypoxia” value ([2]; listed as ICI118,551) was “extremely reduced”, the “hypoxia stimulation induced by DFO (relative luciferase activity)” value ([2]; 50 or 100 μMolar, 24 h, DFO 100 μMolar simultaneously) was “inhibits the hypoxia stimulation induced by DFO” and the “effect on HIF luciferase activity compared with propranolol” value ([2]; equal dose) was “clearly superior to propranolol”. The “cell migration (closure of the discontinuity)” value (HUVEC migration) was “delay the closure of the discontinuity; also recorded: delay cell migration”, the LD50 [6] was 100 µM and the hemangiosphere formation [7] was “hemangiospheres are disrupted; also recorded: the spheres appear disaggregated”. For the same compound, the “decrease of the size tumor versus vehicle treated mice” value [8] was “around 30%” and the “tubulogenesis (number of closed structures)” value (HUVECs tubulogenesis) was “dramatically decreased; also recorded: significantly inhibit the tubulogenesis”.

In the case of `CC(C)NCC(O)COc1cccc2ccccc12` (stereo not shown) [Propranolol], the “tumor growth during the clinical trial” value (retina hemangioblastomas; 120 mg a day, 12 months, 7 VHL patients) is given as “did not grow in any case”, the visual acuity (retina hemangioblastomas; 120 mg a day, 12 months) is given as “in some cases visual acuity increased” and the side effect (retina hemangioblastomas; 120 mg a day) is given as “Low blood pressure”. The “exudates from the hemangioblastomas” value (retina hemangioblastomas; 2 cases, between 3 and 6 months of treatment) was “disappeared completely”, the “viability (ATP content) of the VHL−/− cells” value [5] was “decrease, in a dose-dependent manner and with higher specificity” and the “luciferase activity induced by hypoxia” value [2] was “dampened; also recorded: prevented hypoxia stimulation”. The “luciferase activity induced by hypoxia” value ([2]; listed as propranolol) was “extremely reduced”, the “cell migration (closure of the discontinuity)” value (HUVEC migration) was “delay the closure of the discontinuity; also recorded: delay cell migration” and the hemangiosphere formation [7] was “hemangiospheres are disrupted; also recorded: the spheres appear disaggregated”. The “decrease of the size tumor versus vehicle treated mice” value [8] was “around 30%” and the “tubulogenesis (number of closed structures)” value (HUVECs tubulogenesis) was “dramatically decreased; also recorded: significantly inhibit the tubulogenesis”.

Reference: patent US11730707B2, “Compounds for treating von Hippel-Lindau disease” (CONSEJO SUPERIOR DE INVESTIGACIONES CIENTÍFICAS, priority 2017, dated 2023)
